The source of these data is article PMC8402619 (Viruses, 2021).

One series relates to CYP1A2. The series is described as follows: CYP induction in cryopreserved human hepatocytes. Particulars: positive control, 50 µM, 48 h, n = 3 donors.
For a further series, the system named is CYP2B6. In words: CYP induction in cryopreserved human hepatocytes. The note with it: positive control, 1000 µM, 48 h, n = 3 donors.
In another series the target is T1, BCRP (Homo sapiens, UniProt Q9UNQ0).
T1 sequence (Q9UNQ0 1-655): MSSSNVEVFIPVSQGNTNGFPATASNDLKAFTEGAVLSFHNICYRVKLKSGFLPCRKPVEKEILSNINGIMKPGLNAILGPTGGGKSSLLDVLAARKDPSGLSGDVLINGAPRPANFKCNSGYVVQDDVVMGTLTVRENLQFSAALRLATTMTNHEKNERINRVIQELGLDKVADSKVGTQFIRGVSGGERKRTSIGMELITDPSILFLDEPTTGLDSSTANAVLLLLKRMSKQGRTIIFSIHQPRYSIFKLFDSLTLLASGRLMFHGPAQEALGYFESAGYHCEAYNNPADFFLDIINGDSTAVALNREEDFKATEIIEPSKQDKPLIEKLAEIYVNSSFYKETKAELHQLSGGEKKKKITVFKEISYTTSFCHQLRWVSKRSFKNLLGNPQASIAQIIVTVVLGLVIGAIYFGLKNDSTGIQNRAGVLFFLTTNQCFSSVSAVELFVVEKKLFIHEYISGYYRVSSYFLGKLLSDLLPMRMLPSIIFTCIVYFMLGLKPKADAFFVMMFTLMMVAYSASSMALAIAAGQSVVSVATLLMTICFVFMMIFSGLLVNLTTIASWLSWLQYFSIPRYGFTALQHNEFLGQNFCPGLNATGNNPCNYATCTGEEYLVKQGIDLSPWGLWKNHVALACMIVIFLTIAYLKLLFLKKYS
In words: Bidirectional transport across MDCKII and MDCKII-BCRP cell monolayers. Details: expressed in transfected cells; host or cells: MDCKII. Particulars: positive control substrate 1 µM, mean ± SEM. Format: in vitro ADME.

Turning to `COc1ccc2[nH]c([S+]([O-])Cc3ncc(C)c(OC)c3C)nc2c1` (stereo not shown) [Omeprazole, reference compound], the “mRNA Mean Fold Change ± SD CYP1A2” value with CYP1A2 was determined as 26.4 ± 8.6.
In the case of `CCC1(c2ccccc2)C(=O)NC(=O)NC1=O` [Phenobarbitol, reference compound], in the series on CYP2B6, the “mRNA Mean Fold Change ± SD CYP2B6” value amounted to 18.5 ± 1.9.
In general, efflux ratio refers to the permeability from basolateral to apical divided by that in the opposite direction, in the common usage. With `COc1cc2nc(N3CCN(C(=O)c4ccco4)CC3)nc(N)c2cc1OC` [prazosin, reference compound], the efflux ratio at BCRP (dog, MDCK, untransfected control cells) was 1 ± 0.09; at BCRP (human, BCRP-transfected monolayers), 14.9 ± 4.9.
